In ChEMBL document CHEMBL1201862, “PubChem BioAssay data set” (2004):
Entries after “also recorded” stand apart in the source; their conditions may differ. Each block holds one compound with its values, some of them ahead of it. Calls of active or inactive are those of the source.

How the values were obtained:
[1] = target: T1, Cytochrome P450 1A2 (Homo sapiens, UniProt P05177);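 further: PubChem cytochrome P450 panel assay, CYP1A2 panel member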
T1 sequence (P05177 whole entry): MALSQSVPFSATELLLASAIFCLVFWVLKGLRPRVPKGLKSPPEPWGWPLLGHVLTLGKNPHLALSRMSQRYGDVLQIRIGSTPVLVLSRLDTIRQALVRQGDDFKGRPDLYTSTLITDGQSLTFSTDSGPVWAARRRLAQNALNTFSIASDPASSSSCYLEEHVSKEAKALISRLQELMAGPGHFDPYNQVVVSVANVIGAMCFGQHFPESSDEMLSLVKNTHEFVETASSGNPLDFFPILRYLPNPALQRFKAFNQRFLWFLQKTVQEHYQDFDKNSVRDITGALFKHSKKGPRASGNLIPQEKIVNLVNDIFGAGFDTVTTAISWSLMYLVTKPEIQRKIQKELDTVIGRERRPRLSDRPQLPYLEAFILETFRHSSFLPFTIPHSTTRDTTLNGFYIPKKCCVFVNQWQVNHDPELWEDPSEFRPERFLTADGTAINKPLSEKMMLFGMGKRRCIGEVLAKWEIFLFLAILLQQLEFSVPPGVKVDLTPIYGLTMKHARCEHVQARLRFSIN

[2] = target: T1, Cytochrome P450 1A2; remark: listed apart in the source
[3] = target: Cytochrome P450 2C9 (Homo sapiens, UniProt P11712)
[4] = target: T2, Cytochrome P450 3A4 (Homo sapiens, UniProt P08684);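 further: CYP3A4 tested as one member of a cytochrome P450 panel screen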
T2 sequence (P08684 whole entry): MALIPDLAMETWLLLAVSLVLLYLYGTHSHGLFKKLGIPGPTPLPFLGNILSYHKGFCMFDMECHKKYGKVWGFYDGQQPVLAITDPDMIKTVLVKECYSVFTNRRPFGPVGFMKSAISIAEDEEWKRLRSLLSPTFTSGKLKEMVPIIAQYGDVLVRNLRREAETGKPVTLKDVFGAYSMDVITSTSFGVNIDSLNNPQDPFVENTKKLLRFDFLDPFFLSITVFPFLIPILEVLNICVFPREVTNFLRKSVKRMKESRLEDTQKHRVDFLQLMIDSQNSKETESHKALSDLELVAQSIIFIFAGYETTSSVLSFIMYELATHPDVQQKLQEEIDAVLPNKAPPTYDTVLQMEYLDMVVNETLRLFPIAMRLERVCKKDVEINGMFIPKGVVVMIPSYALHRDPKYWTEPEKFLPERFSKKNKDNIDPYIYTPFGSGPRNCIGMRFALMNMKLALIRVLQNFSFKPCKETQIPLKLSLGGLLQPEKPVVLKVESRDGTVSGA

[5] = target: T2, Cytochrome P450 3A4; remark: listed apart in the source
[6] = target: T3, Cytochrome P450 2D6 (Homo sapiens, UniProt P10635)
T3 sequence (P10635 whole entry): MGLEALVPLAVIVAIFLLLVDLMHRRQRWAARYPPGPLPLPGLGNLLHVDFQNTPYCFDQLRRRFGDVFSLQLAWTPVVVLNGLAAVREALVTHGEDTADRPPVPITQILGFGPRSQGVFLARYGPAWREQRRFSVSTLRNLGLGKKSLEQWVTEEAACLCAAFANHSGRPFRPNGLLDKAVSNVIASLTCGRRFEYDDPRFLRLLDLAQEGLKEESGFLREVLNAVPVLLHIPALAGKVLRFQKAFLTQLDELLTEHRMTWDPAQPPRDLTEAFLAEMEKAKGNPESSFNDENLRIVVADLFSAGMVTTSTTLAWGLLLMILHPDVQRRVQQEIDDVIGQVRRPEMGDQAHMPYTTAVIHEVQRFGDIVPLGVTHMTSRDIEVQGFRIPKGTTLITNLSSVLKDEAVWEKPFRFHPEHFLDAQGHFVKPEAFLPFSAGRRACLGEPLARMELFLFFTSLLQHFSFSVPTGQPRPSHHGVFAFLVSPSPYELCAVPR

[7] = target: Cytochrome P450 2C19 (Homo sapiens, UniProt P33261); experiment: Cytochrome panel assay with activity outcomes. Panel member name: p450-cyp2c19 Compounds with AC50 equal or less than 10 uM are considered active; format: functional
Chain of Cytochrome P450 2C19 (P33261 whole entry): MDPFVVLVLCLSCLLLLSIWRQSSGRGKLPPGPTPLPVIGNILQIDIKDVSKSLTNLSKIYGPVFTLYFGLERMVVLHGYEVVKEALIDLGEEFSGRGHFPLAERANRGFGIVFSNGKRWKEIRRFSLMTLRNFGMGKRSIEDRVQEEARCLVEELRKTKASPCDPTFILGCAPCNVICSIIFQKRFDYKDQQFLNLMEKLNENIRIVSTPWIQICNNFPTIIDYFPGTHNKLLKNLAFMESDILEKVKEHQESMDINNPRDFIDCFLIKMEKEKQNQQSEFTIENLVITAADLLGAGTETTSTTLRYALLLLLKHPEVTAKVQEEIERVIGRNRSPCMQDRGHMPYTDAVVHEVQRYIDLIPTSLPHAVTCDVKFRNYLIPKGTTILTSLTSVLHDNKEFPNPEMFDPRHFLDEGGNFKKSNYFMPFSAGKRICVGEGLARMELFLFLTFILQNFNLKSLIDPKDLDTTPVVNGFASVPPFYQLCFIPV

[8] = target: T3, Cytochrome P450 2D6; experiment: qHTS Assay for Inhibitors and Substrates of Cytochrome P450 2D6. [Related pubchem assays: 410 ]; format: ADME; conditions: read-out: Potency
[9] = target: T4, Heat shock factor protein 1 (Mus musculus, UniProt P38532); experiment: decrease of HSF1-responsive luciferase luminescence – cell-based, NIH3T3, dose retest, confirmation (AID 2382); format: functional;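 further: NIH3T3 fibroblasts with HSF1-driven luciferase reporter stressed by proteasome inhibitor MG132; luminescence from HSF1-driven luciferase expression after 8 hours of MG132 stress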
T4 sequence (P38532 whole entry): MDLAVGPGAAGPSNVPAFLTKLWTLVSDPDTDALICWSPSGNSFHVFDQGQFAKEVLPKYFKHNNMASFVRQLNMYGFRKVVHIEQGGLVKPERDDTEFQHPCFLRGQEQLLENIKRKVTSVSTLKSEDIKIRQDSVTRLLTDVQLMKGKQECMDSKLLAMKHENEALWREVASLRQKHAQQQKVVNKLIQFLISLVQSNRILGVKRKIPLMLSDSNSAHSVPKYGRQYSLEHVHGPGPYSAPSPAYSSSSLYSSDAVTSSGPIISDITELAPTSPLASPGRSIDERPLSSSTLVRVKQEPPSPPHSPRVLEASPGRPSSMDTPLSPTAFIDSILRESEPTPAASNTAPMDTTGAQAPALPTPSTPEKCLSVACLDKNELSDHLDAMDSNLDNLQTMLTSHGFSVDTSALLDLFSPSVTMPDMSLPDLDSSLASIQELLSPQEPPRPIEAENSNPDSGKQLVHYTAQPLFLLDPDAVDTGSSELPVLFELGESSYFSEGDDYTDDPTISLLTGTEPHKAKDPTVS

[10] = restored growth of temperature-sensitive Burl-1 yeast – whole organism, S. cerevisiae, Burl-1 ts mutant, luminescence, counter-screen for SUMOylation pathway inhibitor project, dose response (AID 463199); format: functional
[11] = target: Beta-galactosidase (Escherichia coli, UniProt Q8VNN2); experiment: detection-enzyme interference by beta-gal modulators – biochemical, E. coli enzyme, set 3, artefact control for CCR6 antagonist project, dose response (AID 504712); format: functional
Chain of Beta-galactosidase (Q8VNN2 whole entry, the tested form may be a part): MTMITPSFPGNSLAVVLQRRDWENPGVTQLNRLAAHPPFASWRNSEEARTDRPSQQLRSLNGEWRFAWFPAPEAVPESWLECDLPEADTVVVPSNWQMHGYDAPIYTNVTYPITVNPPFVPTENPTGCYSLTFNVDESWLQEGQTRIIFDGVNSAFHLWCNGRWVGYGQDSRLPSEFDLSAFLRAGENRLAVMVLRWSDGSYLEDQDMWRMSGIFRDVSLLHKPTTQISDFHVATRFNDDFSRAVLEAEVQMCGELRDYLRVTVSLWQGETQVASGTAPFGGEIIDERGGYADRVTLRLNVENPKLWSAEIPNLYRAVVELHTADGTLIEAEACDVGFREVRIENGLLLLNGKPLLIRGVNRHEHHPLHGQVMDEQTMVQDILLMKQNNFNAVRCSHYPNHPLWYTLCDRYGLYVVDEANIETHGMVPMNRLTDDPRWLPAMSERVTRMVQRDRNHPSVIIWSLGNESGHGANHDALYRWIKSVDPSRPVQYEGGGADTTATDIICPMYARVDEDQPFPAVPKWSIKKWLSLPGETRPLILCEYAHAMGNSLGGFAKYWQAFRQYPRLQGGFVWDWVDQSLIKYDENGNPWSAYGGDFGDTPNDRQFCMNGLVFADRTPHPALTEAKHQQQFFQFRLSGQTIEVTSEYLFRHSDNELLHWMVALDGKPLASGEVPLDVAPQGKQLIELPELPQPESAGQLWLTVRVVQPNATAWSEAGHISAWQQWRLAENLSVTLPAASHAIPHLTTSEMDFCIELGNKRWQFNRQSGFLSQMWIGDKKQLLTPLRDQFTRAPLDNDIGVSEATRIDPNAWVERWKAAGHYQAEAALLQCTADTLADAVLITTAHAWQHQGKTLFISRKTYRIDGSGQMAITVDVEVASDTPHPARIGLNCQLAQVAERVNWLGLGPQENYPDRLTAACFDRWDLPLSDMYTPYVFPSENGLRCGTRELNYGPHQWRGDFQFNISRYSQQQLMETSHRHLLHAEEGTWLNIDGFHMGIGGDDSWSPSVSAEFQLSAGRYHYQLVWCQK

[12] = target: Apelin receptor (Homo sapiens, UniProt P35414); experiment: apelin receptor antagonists, arrestin read-out – cell-based, luminescent, enzyme-fragment complementation, selectivity assay for CCR6 antagonist project, SAR follow-up (AID 588359); format: functional
Chain of Apelin receptor (P35414 whole entry, the tested form may be a part): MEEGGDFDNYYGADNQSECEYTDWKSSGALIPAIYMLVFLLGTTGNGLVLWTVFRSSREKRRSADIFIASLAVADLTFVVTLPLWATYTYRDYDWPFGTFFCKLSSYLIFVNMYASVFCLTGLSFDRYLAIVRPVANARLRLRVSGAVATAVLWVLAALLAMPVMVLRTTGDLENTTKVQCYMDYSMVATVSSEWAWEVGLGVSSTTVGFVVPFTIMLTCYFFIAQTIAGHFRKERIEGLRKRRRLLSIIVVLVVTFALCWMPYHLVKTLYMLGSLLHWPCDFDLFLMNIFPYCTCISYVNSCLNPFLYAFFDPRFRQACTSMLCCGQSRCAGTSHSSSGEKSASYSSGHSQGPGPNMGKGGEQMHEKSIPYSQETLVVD

[13] = target: Heat shock protein HSP 90-alpha (Homo sapiens, UniProt P07900); format: functional, organism-based
[14] = target: T5, Rac GTPase-activating protein 1 (Homo sapiens, UniProt Q9H0H5); experiment: blockers of MgcRacGAP-driven Rac1 GTP hydrolysis – biochemical, ADP Hunter fluorescence, primary and confirmatory, confirmation (AID 624330); format: functional
T5 sequence (Q9H0H5 whole entry): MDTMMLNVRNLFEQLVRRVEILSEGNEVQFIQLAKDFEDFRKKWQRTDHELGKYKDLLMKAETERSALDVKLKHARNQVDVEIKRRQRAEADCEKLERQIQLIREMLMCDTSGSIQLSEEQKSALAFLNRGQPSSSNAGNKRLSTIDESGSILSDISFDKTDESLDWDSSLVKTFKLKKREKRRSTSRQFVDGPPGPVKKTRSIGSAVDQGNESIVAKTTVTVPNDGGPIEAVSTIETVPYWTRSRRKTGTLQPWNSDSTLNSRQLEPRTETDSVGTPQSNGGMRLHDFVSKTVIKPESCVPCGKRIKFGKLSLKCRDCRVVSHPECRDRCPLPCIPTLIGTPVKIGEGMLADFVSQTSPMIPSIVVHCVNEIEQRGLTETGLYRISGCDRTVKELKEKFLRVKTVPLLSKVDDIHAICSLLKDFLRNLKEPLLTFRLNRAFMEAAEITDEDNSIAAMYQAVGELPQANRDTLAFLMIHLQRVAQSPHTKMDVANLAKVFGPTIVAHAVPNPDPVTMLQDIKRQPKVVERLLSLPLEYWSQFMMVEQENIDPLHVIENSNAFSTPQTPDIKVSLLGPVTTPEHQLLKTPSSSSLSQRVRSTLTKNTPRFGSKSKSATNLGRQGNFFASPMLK

[15] = target: T6, Apoptotic protease-activating factor 1 (Homo sapiens, UniProt O14727); format: functional
T6 sequence (O14727 whole entry): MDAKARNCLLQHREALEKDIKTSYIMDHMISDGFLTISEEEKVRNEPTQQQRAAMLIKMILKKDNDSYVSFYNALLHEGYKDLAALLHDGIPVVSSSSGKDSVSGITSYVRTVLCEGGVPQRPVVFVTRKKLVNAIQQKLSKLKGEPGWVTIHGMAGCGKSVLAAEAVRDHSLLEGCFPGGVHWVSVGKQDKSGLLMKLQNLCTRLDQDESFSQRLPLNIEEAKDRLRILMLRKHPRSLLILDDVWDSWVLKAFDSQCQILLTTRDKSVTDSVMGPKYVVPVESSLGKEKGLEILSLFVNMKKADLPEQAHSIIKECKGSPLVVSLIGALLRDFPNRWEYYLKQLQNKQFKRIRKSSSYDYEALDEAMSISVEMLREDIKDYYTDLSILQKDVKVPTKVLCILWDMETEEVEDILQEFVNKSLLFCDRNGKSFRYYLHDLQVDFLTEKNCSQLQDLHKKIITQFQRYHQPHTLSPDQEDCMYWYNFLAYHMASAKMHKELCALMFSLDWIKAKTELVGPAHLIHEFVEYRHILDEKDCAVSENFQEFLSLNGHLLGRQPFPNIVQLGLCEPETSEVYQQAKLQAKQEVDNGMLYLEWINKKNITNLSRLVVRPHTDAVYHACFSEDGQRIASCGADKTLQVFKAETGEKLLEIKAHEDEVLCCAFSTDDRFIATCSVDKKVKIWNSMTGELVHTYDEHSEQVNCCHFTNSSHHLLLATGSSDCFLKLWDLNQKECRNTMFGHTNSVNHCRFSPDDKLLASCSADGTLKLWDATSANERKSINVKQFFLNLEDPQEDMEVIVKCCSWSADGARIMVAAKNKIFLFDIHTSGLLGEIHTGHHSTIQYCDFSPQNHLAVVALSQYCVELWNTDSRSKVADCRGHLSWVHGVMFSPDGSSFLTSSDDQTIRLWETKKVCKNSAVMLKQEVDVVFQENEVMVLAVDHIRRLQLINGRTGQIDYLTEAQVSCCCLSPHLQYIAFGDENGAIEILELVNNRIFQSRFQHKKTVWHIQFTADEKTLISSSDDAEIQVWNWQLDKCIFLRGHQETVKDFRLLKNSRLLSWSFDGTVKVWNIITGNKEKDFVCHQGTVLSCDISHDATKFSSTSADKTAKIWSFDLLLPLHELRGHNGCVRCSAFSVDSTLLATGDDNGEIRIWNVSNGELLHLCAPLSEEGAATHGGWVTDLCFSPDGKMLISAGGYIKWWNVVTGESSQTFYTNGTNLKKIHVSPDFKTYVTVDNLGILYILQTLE

[16] = target: DNA dC->dU-editing enzyme APOBEC-3G (Homo sapiens, UniProt Q9HC16); experiment: Dose Response confirmation of small molecule APOBEC3G DNA Deaminase Inhibitors via a fluorescence-based single-stranded DNA deaminase assay. [Related pubchem assays (depositor defined):AID493012, AID493028]; format: functional
Chain of DNA dC->dU-editing enzyme APOBEC-3G (Q9HC16 whole entry): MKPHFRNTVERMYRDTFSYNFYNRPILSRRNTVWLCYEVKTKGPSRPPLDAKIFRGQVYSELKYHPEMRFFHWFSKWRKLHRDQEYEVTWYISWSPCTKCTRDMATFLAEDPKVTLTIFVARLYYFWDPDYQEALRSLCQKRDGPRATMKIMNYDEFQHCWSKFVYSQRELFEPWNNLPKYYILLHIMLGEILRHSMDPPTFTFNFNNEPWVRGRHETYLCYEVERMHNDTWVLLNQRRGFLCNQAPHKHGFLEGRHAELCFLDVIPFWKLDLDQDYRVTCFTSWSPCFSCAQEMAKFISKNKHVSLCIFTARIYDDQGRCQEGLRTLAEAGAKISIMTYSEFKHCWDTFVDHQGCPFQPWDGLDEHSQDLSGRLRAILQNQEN

[17] = target: DNA dC->dU-editing enzyme APOBEC-3A (Homo sapiens, UniProt P31941); experiment: A3A deaminase inhibition for selectivity – biochemical, dose response (AID 504722); format: functional
Chain of DNA dC->dU-editing enzyme APOBEC-3A (P31941 whole entry): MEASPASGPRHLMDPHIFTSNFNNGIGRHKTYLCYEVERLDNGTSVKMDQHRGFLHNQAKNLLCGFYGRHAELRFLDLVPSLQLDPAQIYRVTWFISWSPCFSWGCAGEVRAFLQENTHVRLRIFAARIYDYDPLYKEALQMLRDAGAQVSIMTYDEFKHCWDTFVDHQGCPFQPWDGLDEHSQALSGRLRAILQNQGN

[18] = test system: INS1; experiment: INS-1E survival protection against cytokine death – cell-based, luminescence, retest, dose response (AID 449756); format: functional; conditions: Rattus norvegicus;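 further: cell death triggered by IL-1 beta plus TNF-alpha plus IFN-gamma mixture; protective hits raise ATP signal compared with cytokine alone wells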
[19] = target: RNA-editing ligase 1, mitochondrial (Trypanosoma brucei brucei, UniProt P86926); experiment: inhibition of trypanosome RNA editing ligase – biochemical, fluorescence, Trypanosoma brucei, dose response (AID 1117295); format: functional
Chain of RNA-editing ligase 1, mitochondrial (P86926 whole entry): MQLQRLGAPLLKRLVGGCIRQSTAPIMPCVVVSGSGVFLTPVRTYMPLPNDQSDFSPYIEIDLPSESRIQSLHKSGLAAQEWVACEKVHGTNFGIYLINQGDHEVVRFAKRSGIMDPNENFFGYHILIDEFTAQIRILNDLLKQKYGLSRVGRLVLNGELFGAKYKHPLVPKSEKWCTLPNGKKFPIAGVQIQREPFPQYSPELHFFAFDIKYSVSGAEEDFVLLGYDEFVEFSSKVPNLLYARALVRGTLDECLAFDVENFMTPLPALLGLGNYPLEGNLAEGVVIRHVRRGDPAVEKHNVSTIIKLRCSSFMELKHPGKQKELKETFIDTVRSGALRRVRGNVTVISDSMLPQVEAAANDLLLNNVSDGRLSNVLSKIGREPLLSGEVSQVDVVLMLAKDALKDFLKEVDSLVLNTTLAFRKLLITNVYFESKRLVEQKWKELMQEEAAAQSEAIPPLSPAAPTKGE

[20] = target: Lysine-specific demethylase 4C (Homo sapiens, UniProt Q9H3R0); experiment: inhibition of JMJD2C H3K9me3 demethylation – biochemical, DELFIA europium, cherry-picked samples, dose response (AID 488835); format: functional
Chain of Lysine-specific demethylase 4C (Q9H3R0 whole entry): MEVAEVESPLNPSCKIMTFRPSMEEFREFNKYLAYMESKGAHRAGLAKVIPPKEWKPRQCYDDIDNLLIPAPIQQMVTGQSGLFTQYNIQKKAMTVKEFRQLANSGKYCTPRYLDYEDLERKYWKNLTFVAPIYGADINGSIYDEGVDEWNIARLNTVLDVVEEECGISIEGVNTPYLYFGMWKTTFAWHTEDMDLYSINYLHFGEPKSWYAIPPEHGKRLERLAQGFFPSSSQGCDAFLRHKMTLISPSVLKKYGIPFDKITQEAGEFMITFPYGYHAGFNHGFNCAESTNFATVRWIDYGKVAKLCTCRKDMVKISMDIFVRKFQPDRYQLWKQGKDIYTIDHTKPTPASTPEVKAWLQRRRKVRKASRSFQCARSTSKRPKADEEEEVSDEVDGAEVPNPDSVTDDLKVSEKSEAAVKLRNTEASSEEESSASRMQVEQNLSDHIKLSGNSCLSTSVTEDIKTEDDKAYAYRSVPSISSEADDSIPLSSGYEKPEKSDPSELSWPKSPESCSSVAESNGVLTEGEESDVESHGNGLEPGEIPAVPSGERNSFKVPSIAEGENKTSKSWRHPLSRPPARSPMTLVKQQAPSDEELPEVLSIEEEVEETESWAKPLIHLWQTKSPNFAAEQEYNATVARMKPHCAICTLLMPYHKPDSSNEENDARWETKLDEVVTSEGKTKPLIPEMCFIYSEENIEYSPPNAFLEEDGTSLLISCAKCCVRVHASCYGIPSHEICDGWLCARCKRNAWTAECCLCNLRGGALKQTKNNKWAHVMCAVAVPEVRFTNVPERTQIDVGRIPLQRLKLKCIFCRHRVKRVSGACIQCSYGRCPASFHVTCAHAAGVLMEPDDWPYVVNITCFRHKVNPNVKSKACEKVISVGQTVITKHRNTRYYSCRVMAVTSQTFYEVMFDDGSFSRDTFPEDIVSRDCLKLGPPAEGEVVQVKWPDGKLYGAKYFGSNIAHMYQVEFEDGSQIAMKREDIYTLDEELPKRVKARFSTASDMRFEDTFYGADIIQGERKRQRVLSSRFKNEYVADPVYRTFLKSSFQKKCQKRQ

[21] = target: T7, Short transient receptor potential channel 4 (Mus musculus, UniProt Q9QUQ5); experiment: SAR Analysis for the identification of selective inhibits of the transient receptor potential cation channel C4 (TRPC4): Automated Electrophysiology. [Related pubchem assays (depositor defined):AID2256]; format: functional
T7 sequence (Q9QUQ5 whole entry): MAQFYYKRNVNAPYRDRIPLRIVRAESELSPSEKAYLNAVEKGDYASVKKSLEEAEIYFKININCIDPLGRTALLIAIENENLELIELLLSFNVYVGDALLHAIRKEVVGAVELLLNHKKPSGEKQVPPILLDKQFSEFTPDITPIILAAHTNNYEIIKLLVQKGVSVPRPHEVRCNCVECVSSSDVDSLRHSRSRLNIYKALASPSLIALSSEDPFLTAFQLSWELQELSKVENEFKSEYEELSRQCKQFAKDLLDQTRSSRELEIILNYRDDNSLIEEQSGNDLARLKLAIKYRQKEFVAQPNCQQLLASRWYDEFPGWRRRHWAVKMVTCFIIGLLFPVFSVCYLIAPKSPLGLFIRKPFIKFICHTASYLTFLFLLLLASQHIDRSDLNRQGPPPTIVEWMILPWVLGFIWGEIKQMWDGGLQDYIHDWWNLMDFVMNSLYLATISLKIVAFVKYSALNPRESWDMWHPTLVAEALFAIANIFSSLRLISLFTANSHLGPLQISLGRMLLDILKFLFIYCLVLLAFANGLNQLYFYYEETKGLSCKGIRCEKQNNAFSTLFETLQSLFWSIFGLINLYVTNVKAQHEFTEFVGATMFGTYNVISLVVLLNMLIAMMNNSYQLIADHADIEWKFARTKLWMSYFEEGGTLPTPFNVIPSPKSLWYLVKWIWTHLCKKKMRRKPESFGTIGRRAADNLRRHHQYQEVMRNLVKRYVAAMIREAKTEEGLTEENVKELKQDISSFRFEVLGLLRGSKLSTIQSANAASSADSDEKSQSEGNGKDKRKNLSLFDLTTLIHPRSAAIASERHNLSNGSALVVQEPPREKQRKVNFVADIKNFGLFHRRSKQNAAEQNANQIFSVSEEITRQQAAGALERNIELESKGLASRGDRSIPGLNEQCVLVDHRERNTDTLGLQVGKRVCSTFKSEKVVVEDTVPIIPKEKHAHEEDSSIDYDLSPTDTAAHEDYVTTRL

[22] = target: T7, Short transient receptor potential channel 4; experiment: block of DAMGO-driven TRPC4 calcium entry – cell-based, HEK293 TRPC4/mu-opioid, Fluo-4 calcium, dose response (AID 434942); format: functional;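 further: potency of inhibitors blocking the TRPC4 calcium response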

SMILES: O=C(c1ccc([N+](=O)[O-])cc1)N1CCN(c2ncc(Br)cn2)CC1
EC50 [9]: > 195 µM (not active)
AC50 [10]: 72.3 µM (active)

SMILES: CCNCCNC(=O)c1c(O)nc2c(c1O)CCCC2
AC50 [10]: 73.1 µM (active)

SMILES: O=C(NNC(=O)c1cc(-c2ccccc2)nn1-c1ccccc1)c1ccccc1
IC50 [11]: > 66.6 µM (inactive)
IC50 [12]: 14.8 µM (active)

SMILES: Cc1nnc(N=c2ssnc2Cl)o1
AC50 [13]: 3.13 µM (active)
IC50 [14]: 69.6 µM (active)
IC50 [15]: 16 µM (active)
IC50 [16]: 4.6 µM (active)
IC50 [17]: > 100 µM (inactive)
AC50 [18]: 3.77 µM (active)
IC50 [19]: 79 µM (inactive)
AC50 [20]: 6.06 µM (active)

Results, then the compound that gave them:

AC50 [1]: inactive
AC50 [2]: 31.6 µM (inconclusive)
AC50 [3]: inactive
AC50 [4]: 25.1 µM (inconclusive)
AC50 [5]: inactive
AC50 [6]: inactive; also recorded: inconclusive
AC50 [7]: inactive
AC50 [8]: 10 µM (not active)
SMILES: N[C@H](CCC(=O)O)C(=O)O [D-GLUTAMATE]

IC50 [21]: 38.7 µM (active)
EC50 [22]: 1.88 µM (active)
SMILES: O=C(Cc1ccccc1)Nc1ccccc1Sc1ccccc1

AC50 [1]: inactive
AC50 ([7]; read-out: AC50): 0.501 µM (inconclusive)
SMILES: COc1cc2nc(N3CCN(C(=O)[C@@H]4COc5ccccc5O4)CC3)nc(N)c2cc1OC.CS(=O)(=O)O
